Data reported in patent US7572823B2, “Heteroaryl carboxamide compounds” (Hoffmann-La Roche Inc., priority 2006, dated 2009).
pIC50: −log10 of the molar value.

Target: T1, cholesteryl ester transfer protein (CETP) (Homo sapiens, UniProt P11597)
T1 construct: the source of CETP was human lipoprotein-deprived serum (LPDS); from tissue; host or cells: human lipoprotein-deprived serum (LPDS)
T1 sequence (P11597 18-493): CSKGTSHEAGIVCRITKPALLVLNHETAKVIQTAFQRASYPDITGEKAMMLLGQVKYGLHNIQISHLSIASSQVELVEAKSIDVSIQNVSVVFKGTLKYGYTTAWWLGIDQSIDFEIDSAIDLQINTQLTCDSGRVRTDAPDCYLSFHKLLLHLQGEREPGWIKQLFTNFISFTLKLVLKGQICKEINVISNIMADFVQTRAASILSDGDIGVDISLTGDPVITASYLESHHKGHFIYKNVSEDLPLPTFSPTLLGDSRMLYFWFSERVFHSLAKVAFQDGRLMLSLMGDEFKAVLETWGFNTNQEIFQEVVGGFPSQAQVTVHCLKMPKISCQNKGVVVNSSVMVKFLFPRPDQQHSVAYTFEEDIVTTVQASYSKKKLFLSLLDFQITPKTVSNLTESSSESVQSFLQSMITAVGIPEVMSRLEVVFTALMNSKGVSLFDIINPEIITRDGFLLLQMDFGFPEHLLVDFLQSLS
Assay: CETP inhibition SPA assay in the presence of plasma (CETP source: human lipoprotein-deprived serum)
Type: biochemical
Settings: CETP source human lipoprotein-deprived serum (LPDS), radiolabeled cholesteryl ester transfer from HDL donor to biotin-labeled LDL acceptor
Procedure: Activity of CETP inhibitors was determined using a buffer assay system. Partially purified CETP transferred radiolabeled cholesteryl ester from HDL donor particles to biotin-labeled LDL acceptor particles. The reaction was stopped by addition of streptavidin-coupled scintillation proximity assay (SPA) beads. These beads captured the biotinylated acceptor particles and transferred radioactivity was measured. The assay system was purchased and performed according to manufacturer's recommendations (Amersham Biosciences). Inhibitory activity of compounds was determined as percentage of positive control activity containing CETP together with donor and acceptor particles. Serial dilution of compounds was performed in order to determine the IC50 values. Activity of the compounds was subsequently measured in the presence of plasma using the same assay as described above except that the source of CETP was human lipoprotein-deprived serum (LPDS). Inhibitory activity of compounds was determined as percentage of positive control activity containing all the assay components except compound. Serial dilution of compounds was performed in order to determine the IC50 values.

pIC50 | Structure (SMILES)
7.68 | C[Si](C)(C)c1ccc(CN(CCc2cccc(OC(F)(F)F)c2)C(=O)c2c(F)c(Cl)cc3cc[nH]c23)cc1 [Example 1, 5-Chloro-6-fluoro-1H-indole-7-carboxylic acid [2-(3-trifluoromethoxy-phenyl)-ethyl]-(4-trimethylsilanyl-benzyl)-amide]
7.80 | C[Si](C)(C)c1ccc(CN(CCc2cccc(C(F)(F)F)c2)C(=O)c2c(F)c(Cl)cc3cc[nH]c23)cc1 [Example 3, 5-Chloro-6-fluoro-1H-indole-7-carboxylic acid [2-(3-trifluoromethyl-phenyl)-ethyl]-(4-trimethylsilanyl-benzyl)-amide]
7.36 | CC(C)[Si](C)(C)c1ccc(CN(CCc2cccc(C(F)(F)F)c2)C(=O)c2c(F)c(Cl)cc3cc[nH]c23)cc1 [Example 6, 5-Chloro-6-fluoro-1H-indole-7-carboxylic Acid [4-(isopropyl-dimethyl-silanyl)-benzyl]-[2-(3-trifluoromethyl-phenyl)-ethyl]-amide]
